Measurements taken from PMC9856672, “SGC-CAMKK2-1: A Chemical Probe for CAMKK2” (Cells, 2023).

Assays:
[1] = target: T1, TIE1 (Homo sapiens, UniProt P35590); experiment: KINOMEscan 1 μM, TIE1; type: binding; settings: 1000 nM; Entrez TIE1; read-out: Percent Control
T1 construct: purchased Eurofins DiscoverX KINOMEscan
Excerpt: (§1) Supplement cells-12-00287-s001.zip/File S2. KinomeScan data for the CAMKK2 probe and negative control.xlsx, sheet "SGC-CAMKK2-1" | column: Percent Control

[2] = target: T2, JAK1(JH1domain-catalytic) (Homo sapiens, UniProt P23458); experiment: KINOMEscan 1 μM, JAK1(JH1domain-catalytic); type: binding; settings: 1000 nM; Entrez JAK1; read-out: Percent Control
T2 construct: JAK1(JH1domain-catalytic); purchased Eurofins DiscoverX KINOMEscan
Excerpt: as §1

[3] = target: T3, TBK1 (Homo sapiens, UniProt Q9UHD2); experiment: KINOMEscan 1 μM, TBK1; type: binding; settings: 1000 nM; Entrez TBK1; read-out: Percent Control
T3 construct: purchased Eurofins DiscoverX KINOMEscan
Excerpt: as §1

[4] = target: T4, KIT(V559D,V654A) (Homo sapiens, UniProt P10721, V559D/V654A); experiment: KINOMEscan 1 μM, KIT(V559D,V654A); type: binding; settings: 1000 nM; Entrez KIT; read-out: Percent Control
T4 construct: purchased Eurofins DiscoverX KINOMEscan
T4 sequence (P10721 26-976 V559D/V654A): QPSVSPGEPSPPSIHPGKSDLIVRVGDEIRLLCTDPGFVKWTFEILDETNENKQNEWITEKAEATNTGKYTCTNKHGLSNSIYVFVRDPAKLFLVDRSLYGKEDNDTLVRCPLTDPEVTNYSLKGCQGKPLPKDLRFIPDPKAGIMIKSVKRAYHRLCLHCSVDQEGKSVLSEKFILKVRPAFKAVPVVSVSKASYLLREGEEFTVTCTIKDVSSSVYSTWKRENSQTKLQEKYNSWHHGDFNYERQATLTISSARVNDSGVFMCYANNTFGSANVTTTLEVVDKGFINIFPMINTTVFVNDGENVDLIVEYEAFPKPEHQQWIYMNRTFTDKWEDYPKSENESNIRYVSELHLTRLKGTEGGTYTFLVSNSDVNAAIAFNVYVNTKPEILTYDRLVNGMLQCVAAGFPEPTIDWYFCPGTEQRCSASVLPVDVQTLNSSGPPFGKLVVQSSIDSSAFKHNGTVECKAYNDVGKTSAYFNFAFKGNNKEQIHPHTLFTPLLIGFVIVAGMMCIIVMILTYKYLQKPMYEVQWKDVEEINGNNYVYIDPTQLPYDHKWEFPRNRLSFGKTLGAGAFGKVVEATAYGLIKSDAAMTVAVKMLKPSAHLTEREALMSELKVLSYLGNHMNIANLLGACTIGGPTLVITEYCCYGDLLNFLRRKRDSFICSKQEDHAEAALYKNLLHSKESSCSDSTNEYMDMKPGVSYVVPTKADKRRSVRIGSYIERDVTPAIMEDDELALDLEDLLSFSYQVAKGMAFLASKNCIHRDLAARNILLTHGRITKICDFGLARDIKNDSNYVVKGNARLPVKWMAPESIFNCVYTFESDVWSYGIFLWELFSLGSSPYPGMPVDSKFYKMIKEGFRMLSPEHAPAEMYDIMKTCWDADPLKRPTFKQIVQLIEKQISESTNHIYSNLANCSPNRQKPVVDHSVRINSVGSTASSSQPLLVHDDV
Excerpt: as §1

[5] = target: T5, RIOK2 (Homo sapiens, UniProt Q9BVS4); experiment: DiscoverX KINOMEscan binding assay at 1 μM, RIOK2; settings: Compound Concentration 1000 nM, read-out: Percent Control
T5 construct: purchased Eurofins DiscoverX KINOMEscan
Excerpt: as §1

[6] = target: T6, GCN2(Kin.Dom.2,S808G) (Homo sapiens, UniProt Q9P2K8, S808G); experiment: KINOMEscan 1 μM, GCN2(Kin.Dom.2,S808G); type: binding; settings: 1000 nM; Entrez EIF2AK4; read-out: Percent Control
T6 construct: GCN2(Kin.Dom.2,S808G); purchased Eurofins DiscoverX KINOMEscan
T6 sequence (Q9P2K8 590-1001 S808G limits assumed): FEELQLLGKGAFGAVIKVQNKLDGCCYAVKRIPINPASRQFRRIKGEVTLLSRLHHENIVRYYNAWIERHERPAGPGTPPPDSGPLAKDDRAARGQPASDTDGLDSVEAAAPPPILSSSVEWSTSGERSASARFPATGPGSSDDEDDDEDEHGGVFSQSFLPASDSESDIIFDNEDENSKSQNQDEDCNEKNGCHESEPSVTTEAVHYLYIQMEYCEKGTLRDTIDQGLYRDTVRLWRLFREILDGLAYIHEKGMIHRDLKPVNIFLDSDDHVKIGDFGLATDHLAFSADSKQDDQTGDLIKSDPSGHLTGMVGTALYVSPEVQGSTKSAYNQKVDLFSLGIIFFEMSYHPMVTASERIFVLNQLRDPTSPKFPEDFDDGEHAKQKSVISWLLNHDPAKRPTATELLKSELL
Excerpt: as §1

[7] = target: T7, AMPK-alpha1 (Homo sapiens, UniProt Q13131); experiment: KINOMEscan 1 μM, AMPK-alpha1; type: binding; settings: 1000 nM; Entrez PRKAA1; read-out: Percent Control
T7 construct: purchased Eurofins DiscoverX KINOMEscan
Excerpt: as §1

[8] = target: T8, TRPM6 (Homo sapiens, UniProt Q9BX84); experiment: DiscoverX KINOMEscan binding assay at 1 μM, TRPM6; settings: Compound Concentration 1000 nM, read-out: Percent Control
T8 construct: purchased Eurofins DiscoverX KINOMEscan
Excerpt: as §1

[9] = target: T9, RPS6KA4(Kin.Dom.2-C-terminal) (Homo sapiens, UniProt O75676); experiment: DiscoverX KINOMEscan binding assay at 1 μM, RPS6KA4(Kin.Dom.2-C-terminal); settings: Compound Concentration 1000 nM, read-out: Percent Control
T9 construct: RPS6KA4(Kin.Dom.2-C-terminal); purchased Eurofins DiscoverX KINOMEscan
Excerpt: as §1

[10] = target: T10, FGFR2 (Homo sapiens, UniProt P21802); experiment: KINOMEscan 1 μM, FGFR2; type: binding; settings: 1000 nM; Entrez FGFR2; read-out: Percent Control
T10 construct: purchased Eurofins DiscoverX KINOMEscan
Excerpt: as §1

[11] = target: T11, YANK3 (Homo sapiens, UniProt Q86UX6); experiment: DiscoverX KINOMEscan binding assay at 1 μM, YANK3; settings: YANK3 (STK32C); Compound Concentration 1000 nM; read-out: Percent Control
T11 construct: purchased Eurofins DiscoverX KINOMEscan
Excerpt: as §1

[12] = target: T12, KIT(V559D) (Homo sapiens, UniProt P10721, V559D); experiment: KINOMEscan 1 μM, KIT(V559D); type: binding; settings: 1000 nM; Entrez KIT; read-out: Percent Control
T12 construct: purchased Eurofins DiscoverX KINOMEscan
T12 sequence (P10721 26-976 V559D): as the sequence (P10721 26-976 V559D/V654A) above, with A629V counted along it
Excerpt: as §1

[13] = target: T13, JAK2(JH1domain-catalytic) (Homo sapiens, UniProt O60674); experiment: KINOMEscan 1 μM, JAK2(JH1domain-catalytic); type: binding; settings: 1000 nM; Entrez JAK2; read-out: Percent Control
T13 construct: JAK2(JH1domain-catalytic); purchased Eurofins DiscoverX KINOMEscan
Excerpt: as §1

[14] = target: T14, MEK2 (Homo sapiens, UniProt P36507); experiment: KINOMEscan 1 μM, MEK2; type: binding; settings: 1000 nM; Entrez MAP2K2; read-out: Percent Control
T14 construct: purchased Eurofins DiscoverX KINOMEscan
T14 sequence (P36507 whole entry): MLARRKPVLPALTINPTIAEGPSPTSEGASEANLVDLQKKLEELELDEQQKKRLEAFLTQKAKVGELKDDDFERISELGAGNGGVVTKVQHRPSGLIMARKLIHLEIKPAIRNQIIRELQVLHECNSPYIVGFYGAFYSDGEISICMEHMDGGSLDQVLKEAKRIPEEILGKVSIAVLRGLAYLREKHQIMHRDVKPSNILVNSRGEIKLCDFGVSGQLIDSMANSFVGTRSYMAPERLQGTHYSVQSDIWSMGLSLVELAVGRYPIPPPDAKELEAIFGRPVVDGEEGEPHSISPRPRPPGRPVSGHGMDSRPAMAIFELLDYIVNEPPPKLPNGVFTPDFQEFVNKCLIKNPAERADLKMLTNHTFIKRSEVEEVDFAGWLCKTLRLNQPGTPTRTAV
Excerpt: as §1

[15] = target: T15, SRMS (Homo sapiens, UniProt Q9H3Y6); experiment: DiscoverX KINOMEscan binding assay at 1 μM, SRMS; settings: Compound Concentration 1000 nM, read-out: Percent Control
T15 construct: purchased Eurofins DiscoverX KINOMEscan
Excerpt: as §1

[16] = target: T16, MARK4 (Homo sapiens, UniProt Q96L34); experiment: KINOMEscan 1 μM, MARK4; type: binding; settings: 1000 nM; Entrez MARK4; read-out: Percent Control
T16 construct: purchased Eurofins DiscoverX KINOMEscan
Excerpt: as §1

[17] = target: T17, PRKCD (Homo sapiens, UniProt Q05655); experiment: DiscoverX KINOMEscan binding assay at 1 μM, PRKCD; settings: Compound Concentration 1000 nM, read-out: Percent Control
T17 construct: purchased Eurofins DiscoverX KINOMEscan
Excerpt: as §1

[18] = target: T18, PKN2 (Homo sapiens, UniProt Q16513); experiment: DiscoverX KINOMEscan binding assay at 1 μM, PKN2; settings: Compound Concentration 1000 nM, read-out: Percent Control
T18 construct: purchased Eurofins DiscoverX KINOMEscan
Excerpt: as §1

[19] = target: T19, TRKC (Homo sapiens, UniProt Q16288); experiment: KINOMEscan at 1 μM, TRKC; type: binding; settings: 1000 nM, read-out: Percent Control
T19 construct: purchased Eurofins DiscoverX KINOMEscan
T19 sequence (Q16288 32-839): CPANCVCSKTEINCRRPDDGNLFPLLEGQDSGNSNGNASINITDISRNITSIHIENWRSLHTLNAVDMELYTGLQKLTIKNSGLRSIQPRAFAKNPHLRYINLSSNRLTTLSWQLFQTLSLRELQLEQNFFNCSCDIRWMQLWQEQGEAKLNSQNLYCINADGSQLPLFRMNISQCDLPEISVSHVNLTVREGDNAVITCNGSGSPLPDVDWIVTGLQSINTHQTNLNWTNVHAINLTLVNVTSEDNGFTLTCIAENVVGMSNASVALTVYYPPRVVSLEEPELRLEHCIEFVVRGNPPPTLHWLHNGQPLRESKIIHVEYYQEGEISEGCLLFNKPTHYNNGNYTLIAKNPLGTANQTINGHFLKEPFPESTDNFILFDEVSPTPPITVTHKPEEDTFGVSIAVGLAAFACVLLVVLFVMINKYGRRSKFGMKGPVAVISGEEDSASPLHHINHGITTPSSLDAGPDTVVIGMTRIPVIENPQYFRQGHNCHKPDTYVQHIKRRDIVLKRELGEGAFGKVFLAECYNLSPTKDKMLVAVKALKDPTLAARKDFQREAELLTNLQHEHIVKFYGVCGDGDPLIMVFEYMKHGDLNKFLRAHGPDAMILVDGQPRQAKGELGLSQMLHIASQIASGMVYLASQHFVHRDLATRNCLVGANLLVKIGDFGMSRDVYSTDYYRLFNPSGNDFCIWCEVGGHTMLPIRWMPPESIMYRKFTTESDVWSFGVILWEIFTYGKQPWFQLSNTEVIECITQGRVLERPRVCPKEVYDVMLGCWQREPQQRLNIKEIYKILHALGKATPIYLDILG
Excerpt: (§2) Supplement cells-12-00287-s001.zip/File S2. KinomeScan data for the CAMKK2 probe and negative control.xlsx, sheet "SGC-CAMKK2-1N" | column: Percent Control

[20] = target: T20, GRK4 (Homo sapiens, UniProt P32298); experiment: KINOMEscan binding assay at 1 μM, GRK4; settings: Compound Concentration 1000 nM; read-out: Percent Control
T20 construct: purchased Eurofins DiscoverX KINOMEscan
Excerpt: as §2

[21] = target: T21, TLK2 (Homo sapiens, UniProt Q86UE8); experiment: KINOMEscan at 1 μM, TLK2; type: binding; settings: 1000 nM, read-out: Percent Control
T21 construct: purchased Eurofins DiscoverX KINOMEscan
Excerpt: as §2

[22] = target: T22, RIOK3 (Homo sapiens, UniProt O14730); experiment: KINOMEscan at 1 μM, RIOK3; type: binding; settings: 1000 nM, read-out: Percent Control
T22 construct: purchased Eurofins DiscoverX KINOMEscan
Excerpt: as §2

[23] = target: T23, TXK (Homo sapiens, UniProt P42681); experiment: KINOMEscan at 1 μM, TXK; type: binding; settings: 1000 nM, read-out: Percent Control
T23 construct: purchased Eurofins DiscoverX KINOMEscan
Excerpt: as §2

[24] = target: T24, JNK3 (Homo sapiens, UniProt P53779); experiment: KINOMEscan binding assay at 1 μM, JNK3; settings: Compound Concentration 1000 nM; read-out: Percent Control
T24 construct: purchased Eurofins DiscoverX KINOMEscan
Excerpt: as §2

[25] = target: T25, MAP4K3 (Homo sapiens, UniProt Q8IVH8); experiment: KINOMEscan at 1 μM, MAP4K3; type: binding; settings: 1000 nM, read-out: Percent Control
T25 construct: purchased Eurofins DiscoverX KINOMEscan
T25 sequence (Q8IVH8 whole entry): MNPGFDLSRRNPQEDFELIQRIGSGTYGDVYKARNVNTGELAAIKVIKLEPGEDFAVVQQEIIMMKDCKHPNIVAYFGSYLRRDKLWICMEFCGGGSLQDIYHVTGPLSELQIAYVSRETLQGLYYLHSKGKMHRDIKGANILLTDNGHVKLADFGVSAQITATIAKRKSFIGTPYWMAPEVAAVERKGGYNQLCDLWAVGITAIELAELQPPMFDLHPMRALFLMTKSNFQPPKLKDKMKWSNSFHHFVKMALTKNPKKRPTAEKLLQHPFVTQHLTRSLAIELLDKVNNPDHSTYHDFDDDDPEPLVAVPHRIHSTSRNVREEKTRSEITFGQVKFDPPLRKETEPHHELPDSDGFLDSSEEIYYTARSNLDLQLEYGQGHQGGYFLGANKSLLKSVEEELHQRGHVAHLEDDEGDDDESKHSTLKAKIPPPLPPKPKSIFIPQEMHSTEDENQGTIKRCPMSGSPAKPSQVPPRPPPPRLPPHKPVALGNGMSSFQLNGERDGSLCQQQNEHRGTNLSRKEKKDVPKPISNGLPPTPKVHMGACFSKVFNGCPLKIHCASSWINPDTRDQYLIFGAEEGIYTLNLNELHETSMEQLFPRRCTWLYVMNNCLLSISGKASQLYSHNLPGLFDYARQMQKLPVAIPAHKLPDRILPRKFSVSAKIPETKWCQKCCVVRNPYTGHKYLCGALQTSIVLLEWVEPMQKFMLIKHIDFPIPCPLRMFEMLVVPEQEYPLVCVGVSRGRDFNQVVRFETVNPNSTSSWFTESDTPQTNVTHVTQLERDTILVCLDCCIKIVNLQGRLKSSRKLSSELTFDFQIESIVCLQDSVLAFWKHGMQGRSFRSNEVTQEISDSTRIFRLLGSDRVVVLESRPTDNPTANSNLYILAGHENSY
Excerpt: as §2

[26] = target: T26, PRKG2 (Homo sapiens, UniProt Q13237); experiment: KINOMEscan at 1 μM, PRKG2; type: binding; settings: 1000 nM, read-out: Percent Control
T26 construct: purchased Eurofins DiscoverX KINOMEscan
Excerpt: as §2

[27] = target: T27, STK35 (Homo sapiens, UniProt Q8TDR2); experiment: KINOMEscan at 1 μM, STK35; type: binding; settings: 1000 nM, read-out: Percent Control
T27 construct: purchased Eurofins DiscoverX KINOMEscan
Excerpt: as §2

[28] = target: T28, PFPK5(P.falciparum) (Plasmodium falciparum, UniProt P61075); experiment: KINOMEscan at 1 μM, PFPK5(P.falciparum); type: binding; settings: 1000 nM, read-out: Percent Control
T28 construct: purchased Eurofins DiscoverX KINOMEscan
Excerpt: as §2

[29] = target: T29, QSK (Homo sapiens, UniProt Q9Y2K2); experiment: KINOMEscan at 1 μM, QSK; type: binding; settings: 1000 nM, read-out: Percent Control
T29 construct: purchased Eurofins DiscoverX KINOMEscan
T29 sequence (Q9Y2K2 whole entry): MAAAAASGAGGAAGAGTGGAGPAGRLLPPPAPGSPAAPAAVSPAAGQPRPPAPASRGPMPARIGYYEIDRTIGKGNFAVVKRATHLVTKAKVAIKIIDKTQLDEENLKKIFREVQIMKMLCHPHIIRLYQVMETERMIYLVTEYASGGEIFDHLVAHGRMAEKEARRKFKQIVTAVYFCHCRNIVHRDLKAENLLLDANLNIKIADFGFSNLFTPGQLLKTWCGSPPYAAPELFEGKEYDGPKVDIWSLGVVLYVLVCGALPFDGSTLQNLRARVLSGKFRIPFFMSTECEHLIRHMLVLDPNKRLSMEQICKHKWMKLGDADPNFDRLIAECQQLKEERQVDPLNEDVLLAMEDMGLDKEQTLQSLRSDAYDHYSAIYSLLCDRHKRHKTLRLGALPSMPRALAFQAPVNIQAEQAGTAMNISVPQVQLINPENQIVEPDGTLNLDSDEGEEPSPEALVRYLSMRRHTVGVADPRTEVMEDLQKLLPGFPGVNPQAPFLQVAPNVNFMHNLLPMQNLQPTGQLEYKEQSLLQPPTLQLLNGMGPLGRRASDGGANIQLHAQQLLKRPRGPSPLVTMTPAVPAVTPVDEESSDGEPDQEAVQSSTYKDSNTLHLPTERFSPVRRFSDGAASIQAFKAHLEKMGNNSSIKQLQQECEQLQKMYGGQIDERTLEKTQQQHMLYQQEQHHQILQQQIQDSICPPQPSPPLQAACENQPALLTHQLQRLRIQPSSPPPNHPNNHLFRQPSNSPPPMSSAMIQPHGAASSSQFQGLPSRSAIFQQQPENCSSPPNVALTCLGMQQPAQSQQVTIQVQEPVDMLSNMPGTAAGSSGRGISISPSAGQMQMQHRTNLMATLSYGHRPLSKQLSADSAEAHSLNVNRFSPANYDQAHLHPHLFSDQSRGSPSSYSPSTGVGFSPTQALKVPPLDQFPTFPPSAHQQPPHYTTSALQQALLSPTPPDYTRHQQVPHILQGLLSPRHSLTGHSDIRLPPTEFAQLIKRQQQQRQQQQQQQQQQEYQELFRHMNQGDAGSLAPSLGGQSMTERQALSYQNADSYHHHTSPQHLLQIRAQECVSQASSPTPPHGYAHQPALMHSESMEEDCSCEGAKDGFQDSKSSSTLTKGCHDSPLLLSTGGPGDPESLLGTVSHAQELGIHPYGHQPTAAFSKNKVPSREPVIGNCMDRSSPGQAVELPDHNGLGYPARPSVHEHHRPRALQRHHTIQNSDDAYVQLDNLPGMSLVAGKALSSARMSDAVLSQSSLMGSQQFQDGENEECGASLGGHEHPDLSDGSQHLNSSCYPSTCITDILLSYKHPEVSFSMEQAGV
Excerpt: as §2

[30] = target: T30, BRAF (Homo sapiens, UniProt P15056); experiment: KINOMEscan at 1 μM, BRAF; type: binding; settings: 1000 nM, read-out: Percent Control
T30 construct: purchased Eurofins DiscoverX KINOMEscan
Excerpt: as §2

[31] = target: T6, GCN2(Kin.Dom.2,S808G); experiment: KINOMEscan binding assay at 1 μM, GCN2(Kin.Dom.2,S808G); settings: Compound Concentration 1000 nM; read-out: Percent Control
Excerpt: as §2

[32] = target: T31, CHEK2 (Homo sapiens, UniProt O96017); experiment: KINOMEscan at 1 μM, CHEK2; type: binding; settings: 1000 nM, read-out: Percent Control
T31 construct: purchased Eurofins DiscoverX KINOMEscan
Excerpt: as §2

## Cc1cccc(-c2cnc3occ(-c4ccc(C(=O)O)c(C5CCCC5)c4)c3c2)c1 [SGC-CAMKK2-1 (YL-36)]
[1]
  remaining binding at 1 µM: 77%
[2]
  remaining binding at 1 µM: 85%
[3]
  remaining binding at 1 µM: 94%
[4]
  remaining binding at 1 µM: 100%
[5]
  remaining binding at 1 µM: 100%
[6]
  remaining binding at 1 µM: 42%
[7]
  remaining binding at 1 µM: 95%
[8]
  remaining binding at 1 µM: 100%
[9]
  remaining binding at 1 µM: 100%
[10]
  remaining binding at 1 µM: 88%
[11]
  remaining binding at 1 µM: 100%
[12]
  remaining binding at 1 µM: 100%
[13]
  remaining binding at 1 µM: 100%
[14]
  remaining binding at 1 µM: 100%
[15]
  remaining binding at 1 µM: 100%
[16]
  remaining binding at 1 µM: 100%
[17]
  remaining binding at 1 µM: 100%
[18]
  remaining binding at 1 µM: 100%

## O=C(O)c1ccc(-c2coc3ncc(-c4ccccc4)cc23)cc1Cl [SGC-CAMKK2-1N (UNC-YL-83)]
[19]
  remaining binding at 1 µM: 78%
[20]
  remaining binding at 1 µM: 100%
[21]
  remaining binding at 1 µM: 77%
[22]
  remaining binding at 1 µM: 76%
[23]
  remaining binding at 1 µM: 53%
[24]
  remaining binding at 1 µM: 100%
[25]
  remaining binding at 1 µM: 91%
[26]
  remaining binding at 1 µM: 80%
[27]
  remaining binding at 1 µM: 88%
[28]
  remaining binding at 1 µM: 69%
[29]
  remaining binding at 1 µM: 46%
[30]
  remaining binding at 1 µM: 84%
[31]
  remaining binding at 1 µM: 100%
[32]
  remaining binding at 1 µM: 100%
